Measurements taken from paper PMC6668435, “The structural basis of N-acyl-α-amino-β-lactone formation catalyzed by a nonribosomal peptide synthetase” (Nature Communications, 2019).

Key:
ObiH = target: T1, ObiH (Burkholderia diffusa, UniProt Z9H1N4SZ53); assay: LCMS detection of the β-hydroxy-α-amino acid product in coupled assay; type: biochemical
T1 sequence (Z9H1N4SZ53 1-440): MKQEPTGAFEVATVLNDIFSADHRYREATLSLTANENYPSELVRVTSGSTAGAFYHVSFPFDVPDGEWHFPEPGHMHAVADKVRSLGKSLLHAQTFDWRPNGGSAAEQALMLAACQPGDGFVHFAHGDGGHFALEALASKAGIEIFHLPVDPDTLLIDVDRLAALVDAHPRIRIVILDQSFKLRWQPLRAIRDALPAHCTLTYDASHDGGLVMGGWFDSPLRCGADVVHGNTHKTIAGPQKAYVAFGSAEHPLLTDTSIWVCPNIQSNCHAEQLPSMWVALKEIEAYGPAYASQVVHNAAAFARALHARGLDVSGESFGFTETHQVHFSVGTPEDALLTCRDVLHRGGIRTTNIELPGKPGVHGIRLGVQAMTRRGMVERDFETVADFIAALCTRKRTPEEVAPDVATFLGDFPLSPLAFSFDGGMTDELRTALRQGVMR

ObiF1 [1] = target: T2, ObiF1 (Burkholderia diffusa, UniProt A0A5H1ZR44); assay: coupled ObiF1/F2/D/H reconstitution, LCMS product ion counts; type: biochemical; details: made in situ by ObiH from phenylacetaldehyde and L-Thr; 1 µM holo-ObiF1, 5 mM ATP, 2,3-DHB, GSH or DTT trap, pH 7.5, room temperature
T2 construct: full-length NRPS module C-A-PCP-TE-MLP (last residue Val1390), N-terminal His6, E. coli BL21(DE3), holo form (phosphopantetheinylated with Sfp and CoA); codon-optimised synthetic gene

ObiF2 = target: T3, ObiF2 (Burkholderia diffusa, UniProt Z9YLO8D081); assay: coupled ObiF1/F2/D/H reconstitution, LCMS of acyl adenylate and product ions; type: biochemical
T3 sequence (Z9YLO8D081 1-545): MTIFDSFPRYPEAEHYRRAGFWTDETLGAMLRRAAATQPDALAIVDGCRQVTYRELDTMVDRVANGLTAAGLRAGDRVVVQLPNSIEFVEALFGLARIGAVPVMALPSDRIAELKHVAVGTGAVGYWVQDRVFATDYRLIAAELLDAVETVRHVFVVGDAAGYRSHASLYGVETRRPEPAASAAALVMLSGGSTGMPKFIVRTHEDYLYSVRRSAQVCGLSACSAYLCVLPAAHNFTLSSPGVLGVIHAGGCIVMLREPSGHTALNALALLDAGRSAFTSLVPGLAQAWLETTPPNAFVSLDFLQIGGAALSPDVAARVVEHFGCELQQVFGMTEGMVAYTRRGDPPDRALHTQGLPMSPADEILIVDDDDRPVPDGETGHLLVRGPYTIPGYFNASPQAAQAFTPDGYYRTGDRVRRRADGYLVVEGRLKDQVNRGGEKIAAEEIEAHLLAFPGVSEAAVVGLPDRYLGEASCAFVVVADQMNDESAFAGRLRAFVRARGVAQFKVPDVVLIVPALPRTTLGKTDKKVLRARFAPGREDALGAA

ObiF1 [2] = target: T2, ObiF1; assay: X-ray crystal structure, […] Å; type: binding; details: holo-ObiF1 co-crystallised with 2 mM ligand; bound in A domain active site (adenylate-forming conformation)
[3] = target: ObiF1-del1304 (ObiF1 C-A-PCP-TE, terminated after Leu1303, without the MLP domain) (Burkholderia diffusa)

O=CCc1ccccc1 [1a, phenylacetaldehyde]
LCMS detection of the β-hydroxy-α-amino acid product in coupled assay (ObiH): Starting from phenylacetaldehyde (PAA), the L-Thr transaldolase ObiH generates

N[C@H](C(=O)O)[C@H](O)Cc1ccccc1 [2a, β-OH-homoPhe]
coupled ObiF1/F2/D/H reconstitution, LCMS product ion counts (ObiF1 [1]): The best substrates for ObiF1 were β-hydroxy-α-amino acids (2a, 2b) derived from phenylacetaldehydes

O=C(O)c1ccccc1O [3c, 2-OH benzoic acid]
coupled ObiF1/F2/D/H reconstitution, LCMS of acyl adenylate and product ions (ObiF2): 2-OH and 3-OH benzoic acids (3c and 3d) were both activated and converted efficiently

N[C@H](C(=O)O)[C@H](O)Cc1ccc([N+](=O)[O-])cc1 [β-OH-p-NO2-homoPhe, (2S,3R)-β-hydroxy-p-nitro-homophenylalanine]
X-ray crystal structure, 3.0 Å (ObiF1 [2]): β-OH-p-NO2-homoPhe binds in the A domain active site

ObiF1 MLP domain, residues 1304-1390, co-expressed in trans from the construct ObiF1 rbs1303/4 (domain or fragment)
product ion counts by LCMS in the ObiF1/F2/D/H reconstitution assay, protein sample rbs1303/4 (C-A-PCP-TE co-expressed with the MLP domain), no MLP added (fold lower than WT) [3]: 4
